# Patent US20240109936A1, “NOVEL M[…] PEPTIDES” (University of Florida Research Foundation, Incorporated, priority 2020, published 2024)
# Where a SMILES comes first, the peptide text is derived from it.
# How the values were obtained:
# [1] = target: T1, κ opioid receptor (Mus musculus, UniProt P33534); details: non-peptide KOR antagonists; cited from earlier work
# T1 construct: host or cells: living animal (CNS), endogenous receptor
# [2] = system: mice; assay: Forced swim stress-induced increase in morphine consumption, two-bottle choice assay; assay type: in vivo, mouse; details: orally administered, FIG. 13
# [3] = system: mice; details: 3930 alone; place conditioning daily for 2 days; FIG. 33
# Method: For conditioned place preference assay/reinstatement testing are conducted essentially as described for example in Brice-Tutt A C, Wilson L L, Eans S O, Stacy H M, Simons C A, Simpson G G, Coleman J S, Ferracane M J, Aldrich J V, McLaughlin J P: Multifunctional opioid receptor agonism and antagonism by a novel macrocyclic tetrapeptide prevents reinstatement of morphine-seeking behavior. British Journal of Pharmacology, 177(18):4209-4222, 2020. doi: 10.1111/bph.15165.
# [4] = system: mice; assay: Reinstatement of extinguished morphine conditioned place preference (forced swim stress- or morphine-induced); assay type: in vivo, mouse; details: 30 mg/kg, p.o., FIG. 34
# [5] = system: mice; assay: Naloxone precipitated withdrawal (jumping behavior) in morphine-treated mice; assay type: in vivo, mouse; details: five days of morphine injections; 30 mg/kg, p.o. 1 hour prior to naloxone (10 mg/kg, s.c.); FIG. 35
# Method: For naloxone precipitated withdrawal or 2-bottle choice (TBC) assay testing are conducted essentially as described for example in Wilson L L, Harris H M, Brice-Tutt A C, Cirino T J, Eans S O, Stacy H M, Simons C A, Sharma A, Leon J F, Boyer E W, Avery B A, McLaughlin J P, McCurdy C M: Lyophilized Kratom tea as a therapeutic option for opioid dependence. Drug and Alcohol Dependence, 216:108310-108318, 2020. https://doi.org/10.1016/j.drugalcdep.2020.108310; and as follows;
# T1 sequence (P33534 whole entry): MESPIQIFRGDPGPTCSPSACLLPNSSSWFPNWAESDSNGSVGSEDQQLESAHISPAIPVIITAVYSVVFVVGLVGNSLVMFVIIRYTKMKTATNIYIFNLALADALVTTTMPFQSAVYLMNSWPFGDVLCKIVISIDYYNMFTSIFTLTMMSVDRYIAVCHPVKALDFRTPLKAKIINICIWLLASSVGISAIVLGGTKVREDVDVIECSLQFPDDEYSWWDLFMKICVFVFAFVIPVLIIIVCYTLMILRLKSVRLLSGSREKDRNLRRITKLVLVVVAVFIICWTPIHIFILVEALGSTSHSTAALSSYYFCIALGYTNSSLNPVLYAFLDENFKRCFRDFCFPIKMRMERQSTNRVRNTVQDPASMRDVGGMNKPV
structure (smiles),measurement,setting,value
Oc1ccc2c3c1O[C@H]1c4[nH]c5c(c4C[C@@]4(O)[C@@H](C2)N(CC2CC2)CC[C@]314)C[C@@]1(O)[C@H]2Cc3ccc(O)c4c3[C@@]1(CCN2CC1CC1)[C@H]5O4 [nor-binaltorphimine],duration of antagonism,[1],unusually long duration of antagonism
"O=C1N[C@H](Cc2ccccc2C(F)(F)F)C(=O)N[C@@H](Cc2ccccc2)C(=O)N2CCC[C@@H]2C(=O)N[C@H]1Cc1ccccc1 [compound 3930, cyclo[Phe-D-Pro-Phe-D-Phe(2-CF3)]] (HELM PEPTIDE1{F.[dP].F.[O=C([C@@H](Cc1ccccc1C(F)(F)F)N[*:1])[*:2]]}$PEPTIDE1,PEPTIDE1,1:R1-4:R2$$$V2.0)",stress-induced increase in consumption of a morphine solution,[2],can prevent a stress-induced increase in consumption of a morphine solution
same,conditioned place preference or aversion,[3],did not produce conditioned place preference or aversion
same,"stress- (forced swim stress, FSS) induced reinstatement of extinguished morphine-CPP",[4]; administered 5 min or 2.5 hr prior to FSS exposure,prevented stress-induced reinstatement of place preference
same,drug-seeking behavior after an additional round of morphine-place conditioning,[4]; administered 5 min prior to additional round of morphine-place conditioning,no significant effect on drug-seeking behavior
same,frequency of jumping behavior following administration of naloxone,[5],significantly reduced instances of jumping behavior
CC(C)[C@@H](CN1CC[C@@](C)(c2cccc(O)c2)[C@@H](C)C1)NC(=O)[C@H]1Cc2ccc(O)cc2CN1 [JDTic],duration of antagonism,[1],unusually long duration of antagonism
N=C(N)Nc1ccc2[nH]c3c(c2c1)C[C@@]1(O)[C@H]2Cc4ccc(O)c5c4[C@@]1(CCN2CC1CC1)[C@H]3O5 [5-guanidinylnaltrindole],duration of antagonism,[1],unusually long duration of antagonism
